Measured values taken from ChEMBL document CHEMBL5465560, “Selectivity Literature for EUbOPEN Chemogenomic Library” (2024).
pIC50: −log10 of the molar value.

Columns and labels:
[1] = target: T1, Serine/threonine-protein kinase BRSK2 (Homo sapiens) (UniProt Q8IWQ3); test: Selectivity interaction (Kinase screening (Nanosyn)) EUB0000604a BRSK2
T1 sequence (whole entry): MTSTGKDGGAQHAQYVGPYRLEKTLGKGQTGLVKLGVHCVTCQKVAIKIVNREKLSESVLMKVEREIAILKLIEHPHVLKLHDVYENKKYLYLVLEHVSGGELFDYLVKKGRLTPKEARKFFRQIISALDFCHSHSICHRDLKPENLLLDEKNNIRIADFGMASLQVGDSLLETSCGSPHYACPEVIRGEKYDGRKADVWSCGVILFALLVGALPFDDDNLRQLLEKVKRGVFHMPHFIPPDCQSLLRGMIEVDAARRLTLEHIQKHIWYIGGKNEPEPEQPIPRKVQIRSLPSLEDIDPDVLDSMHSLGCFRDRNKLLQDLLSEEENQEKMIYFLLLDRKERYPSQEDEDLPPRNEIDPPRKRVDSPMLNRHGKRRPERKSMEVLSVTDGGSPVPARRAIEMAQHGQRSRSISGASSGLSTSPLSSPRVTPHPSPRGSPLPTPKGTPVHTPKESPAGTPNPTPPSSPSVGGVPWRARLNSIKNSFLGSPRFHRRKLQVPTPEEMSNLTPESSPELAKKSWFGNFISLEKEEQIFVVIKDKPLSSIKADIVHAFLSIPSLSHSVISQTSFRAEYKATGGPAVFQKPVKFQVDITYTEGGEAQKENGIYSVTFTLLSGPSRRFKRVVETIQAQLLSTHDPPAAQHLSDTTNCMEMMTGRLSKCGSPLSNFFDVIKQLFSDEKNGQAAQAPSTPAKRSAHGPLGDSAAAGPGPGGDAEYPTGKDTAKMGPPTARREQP

[2] = target: Ribosomal protein S6 kinase alpha-4 (Homo sapiens) (UniProt O75676); test: Selectivity interaction (Kinase screening (Nanosyn)) EUB0000604a RPS6KA4
Sequence of Ribosomal protein S6 kinase alpha-4 (Homo sapiens) (O75676 whole entry, looked up): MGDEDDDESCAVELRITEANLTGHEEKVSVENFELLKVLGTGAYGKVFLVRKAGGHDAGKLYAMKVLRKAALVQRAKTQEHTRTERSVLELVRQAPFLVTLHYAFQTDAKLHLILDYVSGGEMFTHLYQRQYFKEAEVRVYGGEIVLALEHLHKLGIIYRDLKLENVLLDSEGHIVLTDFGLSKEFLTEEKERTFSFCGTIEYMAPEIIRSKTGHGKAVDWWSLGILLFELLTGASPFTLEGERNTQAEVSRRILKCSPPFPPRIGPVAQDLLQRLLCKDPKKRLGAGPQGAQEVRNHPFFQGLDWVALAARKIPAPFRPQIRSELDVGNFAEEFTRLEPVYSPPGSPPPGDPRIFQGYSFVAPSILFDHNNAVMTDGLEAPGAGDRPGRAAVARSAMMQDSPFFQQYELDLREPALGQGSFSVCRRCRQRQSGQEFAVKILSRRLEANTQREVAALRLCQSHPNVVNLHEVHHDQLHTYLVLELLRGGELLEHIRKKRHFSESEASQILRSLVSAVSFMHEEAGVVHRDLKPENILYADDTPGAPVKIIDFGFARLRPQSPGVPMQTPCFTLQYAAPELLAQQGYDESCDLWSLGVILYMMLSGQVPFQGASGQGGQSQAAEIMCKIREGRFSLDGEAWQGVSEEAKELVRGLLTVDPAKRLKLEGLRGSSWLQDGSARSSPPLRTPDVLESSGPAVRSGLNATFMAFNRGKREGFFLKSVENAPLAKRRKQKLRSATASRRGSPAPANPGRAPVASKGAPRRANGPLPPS

[3] = target: Dual specificity protein kinase CLK4 (Homo sapiens, UniProt Q9HAZ1); test: Selectivity interaction (KinomeScan (DiscoverX)) EUB0001550a CLK4; conditions: at 1 µM
Sequence of Dual specificity protein kinase CLK4 (Q9HAZ1 whole entry, looked up): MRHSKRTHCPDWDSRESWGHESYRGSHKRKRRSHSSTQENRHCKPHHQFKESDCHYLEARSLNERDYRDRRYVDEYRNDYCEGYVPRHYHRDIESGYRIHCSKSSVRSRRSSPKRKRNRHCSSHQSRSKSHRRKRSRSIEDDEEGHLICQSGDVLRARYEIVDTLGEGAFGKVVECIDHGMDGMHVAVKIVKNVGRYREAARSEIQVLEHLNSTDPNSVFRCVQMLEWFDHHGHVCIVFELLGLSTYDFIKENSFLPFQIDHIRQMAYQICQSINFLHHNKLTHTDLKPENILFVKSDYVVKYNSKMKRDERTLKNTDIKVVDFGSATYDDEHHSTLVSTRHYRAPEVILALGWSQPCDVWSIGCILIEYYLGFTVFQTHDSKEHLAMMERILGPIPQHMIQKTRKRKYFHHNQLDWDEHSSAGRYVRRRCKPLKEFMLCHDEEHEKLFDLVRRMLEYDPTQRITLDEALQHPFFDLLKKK

[4] = target: T2, Serine/threonine-protein kinase haspin (Homo sapiens) (UniProt Q8TF76); test: Selectivity interaction (KinomeScan (DiscoverX)) EUB0001550a GSG2; conditions: at 1 µM
T2 sequence (whole entry): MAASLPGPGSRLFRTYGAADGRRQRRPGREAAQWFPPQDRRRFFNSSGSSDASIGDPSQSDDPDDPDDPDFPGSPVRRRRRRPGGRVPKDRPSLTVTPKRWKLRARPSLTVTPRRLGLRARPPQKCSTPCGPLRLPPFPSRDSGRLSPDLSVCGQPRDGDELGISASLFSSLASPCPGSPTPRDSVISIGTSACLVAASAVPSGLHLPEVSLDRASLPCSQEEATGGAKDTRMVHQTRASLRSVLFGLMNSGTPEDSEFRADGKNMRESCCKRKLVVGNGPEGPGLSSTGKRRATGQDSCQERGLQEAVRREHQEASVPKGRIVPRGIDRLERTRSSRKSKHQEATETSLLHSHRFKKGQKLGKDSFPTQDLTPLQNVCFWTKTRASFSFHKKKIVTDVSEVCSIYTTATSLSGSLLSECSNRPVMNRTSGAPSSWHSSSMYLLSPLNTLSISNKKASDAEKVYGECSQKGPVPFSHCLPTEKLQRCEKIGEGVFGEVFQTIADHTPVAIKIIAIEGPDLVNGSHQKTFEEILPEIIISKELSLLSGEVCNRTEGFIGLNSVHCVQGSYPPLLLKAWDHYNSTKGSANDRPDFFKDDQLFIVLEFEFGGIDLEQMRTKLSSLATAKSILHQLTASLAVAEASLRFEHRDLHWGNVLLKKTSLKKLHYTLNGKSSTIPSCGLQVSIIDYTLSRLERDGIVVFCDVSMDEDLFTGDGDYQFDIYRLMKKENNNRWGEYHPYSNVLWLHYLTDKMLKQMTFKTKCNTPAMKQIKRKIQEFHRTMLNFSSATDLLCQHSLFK

Melanocortin receptor 3 = Melanocortin receptor 3 (Homo sapiens, UniProt P41968); test: Selectivity interaction (Melanocortin MC3 receptor binding assay, human recombinant ) EUB0000877a MC3R
Sequence of Melanocortin receptor 3 (P41968 whole entry): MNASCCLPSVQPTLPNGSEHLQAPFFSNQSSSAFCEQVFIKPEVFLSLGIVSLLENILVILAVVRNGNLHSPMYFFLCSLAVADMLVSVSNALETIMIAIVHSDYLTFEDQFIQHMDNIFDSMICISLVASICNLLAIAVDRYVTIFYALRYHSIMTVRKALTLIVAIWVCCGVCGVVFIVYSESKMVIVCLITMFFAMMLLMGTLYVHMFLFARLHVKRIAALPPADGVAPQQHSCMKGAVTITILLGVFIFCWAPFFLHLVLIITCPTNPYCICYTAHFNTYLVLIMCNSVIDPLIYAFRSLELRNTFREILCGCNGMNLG

[5] = target: Thromboxane-A synthase (Homo sapiens) (UniProt P24557); test: Selectivity interaction (Eurofins safety panel) EUB0001564a CYP5A1; conditions: at 10 µM
Sequence of Thromboxane-A synthase (Homo sapiens) (P24557 whole entry): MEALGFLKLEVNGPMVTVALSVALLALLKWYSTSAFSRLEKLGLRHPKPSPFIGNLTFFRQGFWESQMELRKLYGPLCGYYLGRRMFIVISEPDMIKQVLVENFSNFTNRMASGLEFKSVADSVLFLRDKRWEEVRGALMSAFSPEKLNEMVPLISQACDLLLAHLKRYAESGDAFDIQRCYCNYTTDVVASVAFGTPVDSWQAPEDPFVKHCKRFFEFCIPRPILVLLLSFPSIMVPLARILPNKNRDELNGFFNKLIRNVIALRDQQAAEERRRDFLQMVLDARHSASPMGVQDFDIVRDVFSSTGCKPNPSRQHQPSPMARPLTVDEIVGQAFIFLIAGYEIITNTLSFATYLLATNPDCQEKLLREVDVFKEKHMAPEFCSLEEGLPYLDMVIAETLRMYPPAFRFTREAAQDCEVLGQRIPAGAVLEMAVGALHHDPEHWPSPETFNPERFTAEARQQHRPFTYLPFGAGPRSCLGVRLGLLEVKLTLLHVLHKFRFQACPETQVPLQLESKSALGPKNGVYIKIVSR

[6] = target: T3, Phosphatidylinositol 5-phosphate 4-kinase type-2 alpha (Homo sapiens) (UniProt P48426); test: Selectivity interaction (ActivX KiNativ screen (ex vivo kinase selectivity in human PBMCs)) EUB0001619a PIP4K2A; type: cell-based; conditions: PBMC, at 1 µM
T3 sequence (whole entry): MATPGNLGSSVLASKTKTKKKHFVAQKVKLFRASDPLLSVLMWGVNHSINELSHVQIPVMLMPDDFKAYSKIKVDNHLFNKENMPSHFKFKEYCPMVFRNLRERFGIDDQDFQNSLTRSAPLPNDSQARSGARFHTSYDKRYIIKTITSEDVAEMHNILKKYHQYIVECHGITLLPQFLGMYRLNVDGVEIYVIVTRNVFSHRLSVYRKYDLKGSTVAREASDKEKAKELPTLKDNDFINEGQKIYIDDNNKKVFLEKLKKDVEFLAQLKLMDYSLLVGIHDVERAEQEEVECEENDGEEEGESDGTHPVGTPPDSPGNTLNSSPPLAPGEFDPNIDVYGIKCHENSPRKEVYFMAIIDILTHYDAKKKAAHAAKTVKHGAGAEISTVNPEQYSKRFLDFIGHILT

[7] = system: Phosphatidylinositol 4,5-bisphosphate 3-kinase catalytic subunit alpha isoform (Homo sapiens), P42336 [E545K]; conditions: at 10 µM
Sequence of Phosphatidylinositol 4,5-bisphosphate 3-kinase catalytic subunit alpha isoform (Homo sapiens), P42336 [E545K] (P42336 whole entry E545K, canonical isoform): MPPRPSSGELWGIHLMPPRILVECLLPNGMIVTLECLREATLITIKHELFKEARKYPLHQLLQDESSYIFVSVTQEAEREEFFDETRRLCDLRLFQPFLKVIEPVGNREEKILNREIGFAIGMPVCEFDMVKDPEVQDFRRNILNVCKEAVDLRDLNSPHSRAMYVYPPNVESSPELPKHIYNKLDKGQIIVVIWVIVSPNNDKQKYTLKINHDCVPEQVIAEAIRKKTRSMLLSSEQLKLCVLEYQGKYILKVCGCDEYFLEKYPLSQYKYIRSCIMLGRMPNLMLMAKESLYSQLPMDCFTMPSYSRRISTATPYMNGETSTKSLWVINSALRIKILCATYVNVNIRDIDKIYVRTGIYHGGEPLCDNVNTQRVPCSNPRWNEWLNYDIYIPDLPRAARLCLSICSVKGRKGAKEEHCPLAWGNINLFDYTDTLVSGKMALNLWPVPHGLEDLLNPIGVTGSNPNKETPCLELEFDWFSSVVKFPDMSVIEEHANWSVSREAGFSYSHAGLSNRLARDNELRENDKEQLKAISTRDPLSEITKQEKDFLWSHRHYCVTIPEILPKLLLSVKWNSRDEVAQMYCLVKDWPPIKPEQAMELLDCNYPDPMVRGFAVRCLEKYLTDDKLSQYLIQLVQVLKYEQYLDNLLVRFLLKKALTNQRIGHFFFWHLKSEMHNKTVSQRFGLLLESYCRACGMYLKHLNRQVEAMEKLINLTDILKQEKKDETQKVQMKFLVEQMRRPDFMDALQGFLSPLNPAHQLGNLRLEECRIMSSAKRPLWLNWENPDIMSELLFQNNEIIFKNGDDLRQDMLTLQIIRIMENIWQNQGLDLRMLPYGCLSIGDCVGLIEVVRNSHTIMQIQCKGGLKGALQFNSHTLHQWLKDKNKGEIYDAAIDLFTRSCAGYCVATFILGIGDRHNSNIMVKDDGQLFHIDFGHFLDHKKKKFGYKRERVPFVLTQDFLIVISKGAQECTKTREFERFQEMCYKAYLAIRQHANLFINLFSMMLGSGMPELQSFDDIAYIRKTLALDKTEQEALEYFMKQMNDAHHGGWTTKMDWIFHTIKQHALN

Cc1cnc(Nc2ccc(F)cc2Cl)nc1-c1c[nH]c(C(=O)N[C@H](CO)c2cccc(Cl)c2)c1
% of inhibition [1]: 2%
% of inhibition [2]: 6%

CN(C)CC#Cc1ccc2[nH]c3c(c2c1)-c1nc(N)ncc1CCC3
% of control [3]: 34%
% of control [4]: 13%

CCC(=O)N1CC[C@H](Nc2ncnc3c2CN(c2cnc(OC)c(C(F)(F)F)c2)CC3)C1 [LENIOLISIB]
pIC50 (Melanocortin receptor 3): < 4.52

CC[C@@H](Nc1c(C#N)c(-c2ccc(-c3cccc(C)c3F)cc2)nc2cnccc12)C(=O)O [BAY-091]
% of inhibition [5]: 98%

N#Cc1cccc(-c2c[nH]c3ncnc(N4CCOCC4)c23)c1
% of inhibition [6]: 2%

CNC(=O)Nc1ccc(-c2nc(N3CC4CCC(C3)O4)c3cnn(C4CCC5(CC4)OCCO5)c3n2)cc1
% of control [7]: 11%
